According to the NIST ThermoML archive (doi:10.1021/je101304x):
± gives the expanded uncertainty stated by the source.

Details: Liquid, Ebulliometric method (Recirculating still)

SMILES: C=C(C)C(C)C [2,3-dimethyl-1-butene]
- vapor or sublimation pressure (341.87 K): 153.7 ± 1.3 kPa
- vapor or sublimation pressure (343.06 K): 158.1 ± 1.5 kPa
- vapor or sublimation pressure (343.95 K): 162.3 ± 1.3 kPa
- vapor or sublimation pressure (345.83 K): 171.3 ± 1.3 kPa
- vapor or sublimation pressure (347.12 K): 178.2 ± 1.4 kPa
- vapor or sublimation pressure (348.71 K): 186.4 ± 1.4 kPa
- vapor or sublimation pressure (350.49 K): 196.3 ± 1.4 kPa
- vapor or sublimation pressure (352.78 K): 208.6 ± 1.4 kPa
- vapor or sublimation pressure (353.27 K): 211.3 ± 1.7 kPa
- vapor or sublimation pressure (354.06 K): 216.3 ± 1.5 kPa
- vapor or sublimation pressure (356.15 K): 228.9 ± 1.5 kPa
- vapor or sublimation pressure (358.73 K): 244.9 ± 1.5 kPa
- vapor or sublimation pressure (361.3 K): 262.1 ± 1.6 kPa
- vapor or sublimation pressure (362.89 K): 273.7 ± 1.7 kPa
- vapor or sublimation pressure (363.19 K): 275.3 ± 1.9 kPa
- vapor or sublimation pressure (364.38 K): 284.9 ± 1.6 kPa
- vapor or sublimation pressure (365.57 K): 292.7 ± 1.7 kPa
- vapor or sublimation pressure (366.96 K): 303.8 ± 1.8 kPa
- vapor or sublimation pressure (368.24 K): 313.9 ± 1.7 kPa
- vapor or sublimation pressure (369.04 K): 319.7 ± 1.7 kPa
- vapor or sublimation pressure (370.13 K): 328.6 ± 1.8 kPa
- vapor or sublimation pressure (371.12 K): 336.4 ± 1.8 kPa
- vapor or sublimation pressure (372.21 K): 346.1 ± 1.9 kPa
- vapor or sublimation pressure (372.9 K): 351.5 ± 2.2 kPa
- vapor or sublimation pressure (373.7 K): 358.8 ± 1.9 kPa
- vapor or sublimation pressure (374.59 K): 366.7 ± 1.9 kPa
- vapor or sublimation pressure (375.19 K): 372.1 ± 1.9 kPa
- vapor or sublimation pressure (375.78 K): 377.4 ± 1.9 kPa
- vapor or sublimation pressure (376.87 K): 386.8 ± 1.9 kPa
- vapor or sublimation pressure (377.37 K): 391.7 ± 2 kPa

SMILES: c1ccccc1 [benzene]
- vapor or sublimation pressure (403.15 K): 379.3 ± 4.1 kPa

SMILES: C1CCCCC1 [cyclohexane]
- vapor or sublimation pressure (403.15 K): 362.8 ± 3.9 kPa

SMILES: CO [methanol]
- vapor or sublimation pressure (333.42 K): 85.4 ± 1.2 kPa
- vapor or sublimation pressure (334.56 K): 89.5 ± 1.2 kPa
- vapor or sublimation pressure (337.65 K): 101.3 ± 1.2 kPa
- vapor or sublimation pressure (342.17 K): 120.9 ± 1.3 kPa
- vapor or sublimation pressure (343.06 K): 124.8 ± 1.5 kPa
- vapor or sublimation pressure (346.64 K): 142.6 ± 1.4 kPa
- vapor or sublimation pressure (350.25 K): 163.2 ± 1.5 kPa
- vapor or sublimation pressure (353.17 K): 181 ± 1.5 kPa
- vapor or sublimation pressure (353.27 K): 181.7 ± 1.7 kPa
- vapor or sublimation pressure (356.35 K): 202.7 ± 1.6 kPa
- vapor or sublimation pressure (358.91 K): 221.3 ± 1.7 kPa
- vapor or sublimation pressure (361.45 K): 241.4 ± 1.8 kPa
- vapor or sublimation pressure (363.19 K): 255.9 ± 2.1 kPa
- vapor or sublimation pressure (363.85 K): 261.6 ± 1.9 kPa
- vapor or sublimation pressure (366.88 K): 288.9 ± 2 kPa
- vapor or sublimation pressure (370.13 K): 321.3 ± 2.1 kPa
- vapor or sublimation pressure (372.04 K): 341.2 ± 2.3 kPa
- vapor or sublimation pressure (372.9 K): 350.9 ± 2.4 kPa
- vapor or sublimation pressure (375.89 K): 385.4 ± 2.3 kPa
